Measured values from ChEMBL document CHEMBL2074510, “Defective ATP-dependent bile canalicular transport of organic anions in mutant (TR-) rats with conjugated hyperbilirubinemia” (Proc Natl Acad Sci U S A, 1990).

Biological target: ATP-binding cassette sub-family C member 2 (Rattus norvegicus, UniProt Q63120)
Test: TP_TRANSPORTER: uptake in bile canalicular membrane vesicles from Wistar/TR- rat
Type: functional, cell membranes, Bile canalicular membrane vesicle

Sequence of ATP-binding cassette sub-family C member 2 (Q63120 whole entry): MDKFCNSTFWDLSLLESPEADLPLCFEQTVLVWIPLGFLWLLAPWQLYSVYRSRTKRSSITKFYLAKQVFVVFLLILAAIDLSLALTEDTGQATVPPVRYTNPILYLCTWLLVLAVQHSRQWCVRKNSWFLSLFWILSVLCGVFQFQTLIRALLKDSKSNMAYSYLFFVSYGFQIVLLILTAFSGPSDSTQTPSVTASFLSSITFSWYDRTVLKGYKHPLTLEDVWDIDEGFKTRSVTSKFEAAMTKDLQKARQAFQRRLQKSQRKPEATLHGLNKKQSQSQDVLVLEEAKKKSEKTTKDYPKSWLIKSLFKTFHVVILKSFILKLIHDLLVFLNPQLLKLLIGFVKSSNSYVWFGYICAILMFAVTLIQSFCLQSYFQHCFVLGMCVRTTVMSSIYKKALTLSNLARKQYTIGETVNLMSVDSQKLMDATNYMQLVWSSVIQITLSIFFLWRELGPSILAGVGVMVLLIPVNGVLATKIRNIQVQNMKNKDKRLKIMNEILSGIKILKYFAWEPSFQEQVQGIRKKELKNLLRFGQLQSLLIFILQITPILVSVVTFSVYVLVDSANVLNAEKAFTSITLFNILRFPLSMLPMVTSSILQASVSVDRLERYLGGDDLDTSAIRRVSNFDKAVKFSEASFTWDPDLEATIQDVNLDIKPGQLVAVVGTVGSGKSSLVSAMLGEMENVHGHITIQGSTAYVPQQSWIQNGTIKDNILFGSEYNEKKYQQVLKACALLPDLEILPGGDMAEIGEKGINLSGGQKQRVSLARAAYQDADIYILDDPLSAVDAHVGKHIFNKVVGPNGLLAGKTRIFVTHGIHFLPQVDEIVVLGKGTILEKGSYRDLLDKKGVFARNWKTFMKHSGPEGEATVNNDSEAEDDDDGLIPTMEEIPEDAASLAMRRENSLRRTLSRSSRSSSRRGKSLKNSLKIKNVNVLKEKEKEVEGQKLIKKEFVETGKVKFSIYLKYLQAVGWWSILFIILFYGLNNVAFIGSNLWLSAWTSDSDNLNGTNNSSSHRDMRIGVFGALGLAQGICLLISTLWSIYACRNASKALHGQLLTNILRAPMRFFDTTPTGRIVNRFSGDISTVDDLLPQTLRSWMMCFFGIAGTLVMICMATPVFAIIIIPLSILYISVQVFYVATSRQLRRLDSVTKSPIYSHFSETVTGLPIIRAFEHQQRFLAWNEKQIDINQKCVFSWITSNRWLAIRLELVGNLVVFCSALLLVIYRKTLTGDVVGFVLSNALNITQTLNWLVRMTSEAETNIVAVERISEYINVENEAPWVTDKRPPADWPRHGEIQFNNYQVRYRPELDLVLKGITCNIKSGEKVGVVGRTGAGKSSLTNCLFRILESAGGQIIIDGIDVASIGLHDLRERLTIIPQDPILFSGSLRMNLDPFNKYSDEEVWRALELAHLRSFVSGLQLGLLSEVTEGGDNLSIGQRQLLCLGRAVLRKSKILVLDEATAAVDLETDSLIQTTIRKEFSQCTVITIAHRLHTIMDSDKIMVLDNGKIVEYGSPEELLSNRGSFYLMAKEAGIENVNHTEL

With `N[C@@H](CCC(=O)N[C@@H](CSc1c(Br)c(Br)c2c(c1Br)C(=O)OC2(c1ccc(O)c(S(=O)(=O)O)c1)c1ccc(O)c(S(=O)(=O)O)c1)C(=O)NCC(=O)O)C(=O)O` the Activity was “substrate [+]”.
